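In this assay, cells in 96-well plates receive the compound at five concentrations for 48 hours. Endpoints are linearly interpolated between the surrounding concentrations. GI50: concentration for 50% inhibition of growth. Definition used: TGI = concentration required for complete inhibition of growth.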
What was measured:
Assay in all cases: inhibition of tumour cell growth, NCI panel, 48 h
[1] = system: 786-0 renal
[2] = system: A498 renal
[3] = system: A549 NSCLC
[4] = system: ACHN renal
[5] = system: BT-549 breast
[6] = system: CAKI-1 renal
[7] = system: CCRF-CEM leukemia
[8] = system: COLO 205 colon
[9] = system: DU-145 prostate
[10] = system: EKVX NSCLC
[11] = system: HCC-2998 colon
[12] = system: HCT-116 colon
[13] = system: HCT-15 colon
[14] = system: HL-60(TB) leukemia
[15] = system: HOP-62 NSCLC
[16] = system: HOP-92 NSCLC
[17] = system: HS 578T breast
[18] = system: HT29 colon
[19] = system: IGROV1 ovarian
[20] = system: K-562 leukemia
[21] = system: KM12 colon
[22] = system: LOX IMVI melanoma
[23] = system: M14 melanoma
[24] = system: MALME-3M melanoma
[25] = system: MCF7 breast
[26] = system: MDA-MB-231 breast
[27] = system: MDA-MB-435
[28] = system: MOLT-4 leukemia
[29] = system: NCI-H226 lung
[30] = system: NCI-H23 lung
[31] = system: NCI-H460 lung
[32] = system: NCI-H522 lung
[33] = system: NCI/ADR-RES ovarian
[34] = system: OVCAR-3 ovarian
[35] = system: OVCAR-4 ovarian
[36] = system: OVCAR-5 ovarian
[37] = system: OVCAR-8 ovarian
[38] = system: PC-3 prostate
[39] = system: RPMI-8226 leukemia
[40] = system: RXF 393 renal
[41] = system: SF-268 CNS
[42] = system: SF-295 CNS
[43] = system: SF-539 CNS
[44] = system: SK-MEL-2 melanoma
[45] = system: SK-MEL-28 melanoma
[46] = system: SK-MEL-5 melanoma
[47] = system: SK-OV-3 ovarian
[48] = system: SN12C renal
[49] = system: SNB-19 CNS
[50] = system: SNB-75 CNS
[51] = system: SR leukemia
[52] = system: SW-620 colon
[53] = system: T-47D breast
[54] = system: TK-10 renal
[55] = system: U251 CNS
[56] = system: UACC-257 melanoma
[57] = system: UACC-62 melanoma
[58] = system: UO-31 renal

SMILES: CCc1ccc(NC(=O)Nc2c[nH]c3ccccc23)cc1
- GI50 [1]: 8.55 µM
- TGI [1]: > 81.9 µM
- GI50 [2]: > 46 µM
- TGI [2]: > 72.8 µM
- GI50 [3]: 6.26 µM
- TGI [3]: > 48 µM
- GI50 [4]: 23.2 µM
- TGI [4]: > 84.3 µM
- GI50 [5]: 1.68 µM
- TGI [5]: > 23.8 µM
- GI50 [6]: 3.59 µM
- TGI [6]: > 42 µM
- GI50 [7]: 0.358 µM
- TGI [7]: > 100 µM
- GI50 [8]: > 38.9 µM
- TGI [8]: > 54 µM
- GI50 [9]: > 34 µM
- TGI [9]: > 51.5 µM
- GI50 [10]: 9.2 µM
- TGI [10]: > 55 µM
- GI50 [11]: 18 µM
- TGI [11]: > 50.8 µM
- GI50 [12]: 32.9 µM
- TGI [12]: > 56 µM
- GI50 [13]: 17.8 µM
- TGI [13]: > 55.2 µM
- GI50 [14]: 0.811 µM
- TGI [14]: 5.48 µM
- GI50 [15]: 16.7 µM
- TGI [15]: > 58.8 µM
- GI50 [16]: 12 µM
- TGI [16]: > 53.1 µM
- GI50 [17]: 10.4 µM
- TGI [17]: > 67.8 µM
- GI50 [18]: > 43.5 µM
- TGI [18]: > 61.2 µM
- GI50 [19]: 5.72 µM
- TGI [19]: > 45.5 µM
- GI50 [20]: 6.89 µM
- TGI [20]: > 100 µM
- GI50 [21]: 5.63 µM
- TGI [21]: > 43.4 µM
- GI50 [22]: 25.8 µM
- TGI [22]: > 50.2 µM
- GI50 [23]: > 39.8 µM
- TGI [23]: > 57 µM
- GI50 [24]: 8 µM
- TGI [24]: > 49.4 µM
- GI50 [25]: 29.3 µM
- TGI [25]: > 65.5 µM
- GI50 [26]: 3.2 µM
- TGI [26]: > 36.9 µM
- GI50 [27]: 22.6 µM
- TGI [27]: > 49.5 µM
- GI50 [28]: 1.85 µM
- TGI [28]: > 100 µM
- GI50 [29]: 7.29 µM
- TGI [29]: > 52.4 µM
- GI50 [30]: 36.3 µM
- TGI [30]: > 54.1 µM
- GI50 [31]: 12.7 µM
- TGI [31]: > 49.6 µM
- GI50 [32]: 1.18 µM
- TGI [32]: 2.67 µM
- GI50 [33]: 14.2 µM
- TGI [33]: > 62.8 µM
- GI50 [34]: 2.47 µM
- TGI [34]: > 32.2 µM
- GI50 [35]: 10.1 µM
- TGI [35]: > 54.7 µM
- GI50 [36]: 34 µM
- TGI [36]: > 57.9 µM
- GI50 [37]: 13.9 µM
- TGI [37]: > 47.5 µM
- GI50 [38]: 5.13 µM
- TGI [38]: > 63.7 µM
- GI50 [39]: 0.567 µM
- TGI [39]: > 100 µM
- GI50 [40]: 11.6 µM
- TGI [40]: > 59.4 µM
- GI50 [41]: 4.24 µM
- TGI [41]: > 43.4 µM
- GI50 [42]: 23.8 µM
- TGI [42]: > 56 µM
- GI50 [43]: 3.09 µM
- TGI [43]: > 40.6 µM
- GI50 [44]: 35.5 µM
- TGI [44]: > 52.1 µM
- GI50 [45]: > 39 µM
- TGI [45]: > 56.6 µM
- GI50 [46]: 32.7 µM
- TGI [46]: > 54.1 µM
- GI50 [47]: 19.7 µM
- TGI [47]: > 73.2 µM
- GI50 [48]: 2.22 µM
- TGI [48]: > 36.2 µM
- GI50 [49]: 22.7 µM
- TGI [49]: > 58.3 µM
- GI50 [50]: 1.01 µM
- TGI [50]: > 26.5 µM
- GI50 [51]: 2.2 µM
- TGI [51]: > 100 µM
- GI50 [52]: > 38.3 µM
- TGI [52]: > 55 µM
- GI50 [53]: 16.3 µM
- TGI [53]: > 82.2 µM
- GI50 [54]: > 46.1 µM
- TGI [54]: > 70.9 µM
- GI50 [55]: 31.5 µM
- TGI [55]: > 51.7 µM
- GI50 [56]: > 38.6 µM
- TGI [56]: > 59.9 µM
- GI50 [57]: 31.5 µM
- TGI [57]: > 51.7 µM
- GI50 [58]: 1.62 µM
- TGI [58]: > 58 µM

SMILES: c1ccc2nc(Cn3c[n+](Cc4ccc5ccccc5n4)c4ccccc43)ccc2c1
- GI50 [1]: 4.2 µM
- TGI [1]: 16.4 µM
- GI50 [2]: 2.24 µM
- TGI [2]: 10.2 µM
- GI50 [3]: 11.6 µM
- TGI [3]: 25.9 µM
- GI50 [4]: 14.6 µM
- TGI [4]: 31.1 µM
- GI50 [5]: 1.95 µM
- TGI [5]: 6.5 µM
- GI50 [7]: 3.47 µM
- TGI [7]: 21 µM
- GI50 [8]: 1.37 µM
- TGI [8]: 3.22 µM
- GI50 [9]: 4.55 µM
- TGI [9]: 17 µM
- GI50 [10]: 5.7 µM
- TGI [10]: 23.7 µM
- GI50 [11]: 2.76 µM
- TGI [11]: 13.6 µM
- GI50 [12]: 2.4 µM
- TGI [12]: 12.2 µM
- GI50 [13]: 15.1 µM
- TGI [13]: 32.6 µM
- GI50 [15]: 2.97 µM
- TGI [15]: 13.7 µM
- GI50 [16]: 0.93 µM
- TGI [16]: 4.3 µM
- GI50 [17]: 3.19 µM
- TGI [17]: 18.8 µM
- GI50 [18]: 1.48 µM
- TGI [18]: 9.87 µM
- GI50 [19]: 1.65 µM
- TGI [19]: 8.27 µM
- GI50 [20]: 1.25 µM
- TGI [20]: 11.8 µM
- GI50 [21]: 1.61 µM
- TGI [21]: 4.54 µM
- GI50 [22]: 1.91 µM
- TGI [22]: 7.8 µM
- GI50 [23]: 1.99 µM
- TGI [23]: 6.99 µM
- GI50 [24]: 1.26 µM
- TGI [24]: 4.7 µM
- GI50 [25]: 1.91 µM
- TGI [25]: 11.5 µM
- GI50 [26]: 1.59 µM
- TGI [26]: 4.46 µM
- GI50 [27]: 1.63 µM
- TGI [27]: 4.37 µM
- GI50 [28]: 3.37 µM
- TGI [28]: 13 µM
- GI50 [29]: 4.13 µM
- TGI [29]: 20.4 µM
- GI50 [30]: 1.47 µM
- TGI [30]: 10.3 µM
- GI50 [31]: 2.8 µM
- TGI [31]: 12.3 µM
- GI50 [32]: 1.56 µM
- TGI [32]: 9.72 µM
- GI50 [33]: > 100 µM
- TGI [33]: > 100 µM
- GI50 [34]: 1.6 µM
- TGI [34]: 4.99 µM
- GI50 [35]: 1.49 µM
- TGI [35]: 11.6 µM
- GI50 [36]: 2.43 µM
- TGI [36]: 13.7 µM
- GI50 [37]: 3.13 µM
- TGI [37]: 11.3 µM
- GI50 [38]: 2.48 µM
- TGI [38]: 12.2 µM
- GI50 [39]: 0.681 µM
- TGI [39]: 4.05 µM
- GI50 [40]: 3.1 µM
- TGI [40]: 12 µM
- GI50 [41]: 2.97 µM
- TGI [41]: 14.2 µM
- GI50 [42]: 2.69 µM
- TGI [42]: 11.9 µM
- GI50 [43]: 2.61 µM
- TGI [43]: 12 µM
- GI50 [44]: 2.61 µM
- TGI [44]: 6.87 µM
- GI50 [45]: 2.38 µM
- TGI [45]: 9.98 µM
- GI50 [46]: 1.45 µM
- TGI [46]: 2.8 µM
- GI50 [47]: 3.03 µM
- TGI [47]: 11.3 µM
- GI50 [48]: 2.19 µM
- TGI [48]: 10.9 µM
- GI50 [49]: 2.22 µM
- TGI [49]: 10.4 µM
- GI50 [50]: 2.09 µM
- TGI [50]: 9.13 µM
- GI50 [51]: 1.69 µM
- TGI [51]: 5.48 µM
- GI50 [52]: 3.3 µM
- TGI [52]: 15.4 µM
- GI50 [53]: 0.785 µM
- TGI [53]: 9.65 µM
- GI50 [54]: 3.49 µM
- TGI [54]: 13.3 µM
- GI50 [55]: 3.08 µM
- TGI [55]: 12.8 µM
- GI50 [56]: 2.02 µM
- TGI [56]: 5.33 µM
- GI50 [57]: 1.34 µM
- TGI [57]: 3.51 µM
- GI50 [58]: 7.08 µM
- TGI [58]: 21.7 µM

Source: PubChem BioAssay (NCI)
